Reference: US8653064B2, “Crystalline forms of sodium 4-{[9-chloro-7-(2-fluoro-6-methoxyphenyl)-5H-pyrimido[5,4-D][2]benzazepin-2-yl]amino}-2-methoxybenzoate” (Millennium Pharmaceuticals, Inc., priority 2010, dated 2014)

What was measured:
Solubility in water = assay type: physicochemical
[1] = Gravimetric vapor sorption (GVS); assay type: physicochemical; settings: between 0-90% RH, 10% RH intervals, 25° C.

Row | solubility in water (Solubility in water) | uptake (change in weight of the sample) in GVS [1] [%] | SMILES
1 | about 8 mg/mL |  | COc1cc(Nc2ncc3c(n2)-c2ccc(Cl)cc2C(c2c(F)cccc2OC)=NC3)ccc1C(=O)O [Form 2, sodium 4-{[9-chloro-7-(2-fluoro-6-methoxyphenyl)-5H-pyrimido[5,4-d][2]benzazepin-2-yl]amino}-2-methoxybenzoate Form 2]
2 | greater than 10 mg/mL | 6 | COc1cc(Nc2ncc3c(n2)-c2ccc(Cl)cc2C(c2c(F)cccc2OC)=NC3)ccc1C(=O)O [Form 6, sodium 4-{[9-chloro-7-(2-fluoro-6-methoxyphenyl)-5H-pyrimido[5,4-d][2]benzazepin-2-yl]amino}-2-methoxybenzoate Form 6]
3 | about 8 mg/mL |  | COc1cc(Nc2ncc3c(n2)-c2ccc(Cl)cc2C(c2c(F)cccc2OC)=NC3)ccc1C(=O)O [Form 24, sodium 4-{[9-chloro-7-(2-fluoro-6-methoxyphenyl)-5H-pyrimido[5,4-d][2]benzazepin-2-yl]amino}-2-methoxybenzoate Form 24]
4 | about 10 μg/mL |  | COc1cc(Nc2ncc3c(n2)-c2ccc(Cl)cc2C(c2c(F)cccc2OC)=NC3)ccc1C(=O)O [free acid, 4-{[9-chloro-7-(2-fluoro-6-methoxyphenyl)-5H-pyrimido[5,4-d][2]benzazepin-2-yl]amino}-2-methoxybenzoic acid]
